Laboratory results: patent US11530210B2, “Substituted heteroaromatic pyrazolo-pyridines and their use as GLUN2B receptor modulators” (JANSSEN PHARMACEUTICA NV, priority 2019, dated 2022)
Counter-ions that a name gives are not always drawn.

The compounds below were run against T1, human GluN1/GluN2B NMDA receptors (Homo sapiens, UniProt Q13224) (assay: Calcium flux (FLIPR) assay on cloned human NR1/GluN2B ion channels expressed in mammalian cells (standard and HTS variants)). Settings: cells expressing human GluN1/GluN2B, glutamate and glycine co-agonists.
T1 construct: expressed in transfected cells
T1 sequence (Q13224 27-1484, other chains not shown): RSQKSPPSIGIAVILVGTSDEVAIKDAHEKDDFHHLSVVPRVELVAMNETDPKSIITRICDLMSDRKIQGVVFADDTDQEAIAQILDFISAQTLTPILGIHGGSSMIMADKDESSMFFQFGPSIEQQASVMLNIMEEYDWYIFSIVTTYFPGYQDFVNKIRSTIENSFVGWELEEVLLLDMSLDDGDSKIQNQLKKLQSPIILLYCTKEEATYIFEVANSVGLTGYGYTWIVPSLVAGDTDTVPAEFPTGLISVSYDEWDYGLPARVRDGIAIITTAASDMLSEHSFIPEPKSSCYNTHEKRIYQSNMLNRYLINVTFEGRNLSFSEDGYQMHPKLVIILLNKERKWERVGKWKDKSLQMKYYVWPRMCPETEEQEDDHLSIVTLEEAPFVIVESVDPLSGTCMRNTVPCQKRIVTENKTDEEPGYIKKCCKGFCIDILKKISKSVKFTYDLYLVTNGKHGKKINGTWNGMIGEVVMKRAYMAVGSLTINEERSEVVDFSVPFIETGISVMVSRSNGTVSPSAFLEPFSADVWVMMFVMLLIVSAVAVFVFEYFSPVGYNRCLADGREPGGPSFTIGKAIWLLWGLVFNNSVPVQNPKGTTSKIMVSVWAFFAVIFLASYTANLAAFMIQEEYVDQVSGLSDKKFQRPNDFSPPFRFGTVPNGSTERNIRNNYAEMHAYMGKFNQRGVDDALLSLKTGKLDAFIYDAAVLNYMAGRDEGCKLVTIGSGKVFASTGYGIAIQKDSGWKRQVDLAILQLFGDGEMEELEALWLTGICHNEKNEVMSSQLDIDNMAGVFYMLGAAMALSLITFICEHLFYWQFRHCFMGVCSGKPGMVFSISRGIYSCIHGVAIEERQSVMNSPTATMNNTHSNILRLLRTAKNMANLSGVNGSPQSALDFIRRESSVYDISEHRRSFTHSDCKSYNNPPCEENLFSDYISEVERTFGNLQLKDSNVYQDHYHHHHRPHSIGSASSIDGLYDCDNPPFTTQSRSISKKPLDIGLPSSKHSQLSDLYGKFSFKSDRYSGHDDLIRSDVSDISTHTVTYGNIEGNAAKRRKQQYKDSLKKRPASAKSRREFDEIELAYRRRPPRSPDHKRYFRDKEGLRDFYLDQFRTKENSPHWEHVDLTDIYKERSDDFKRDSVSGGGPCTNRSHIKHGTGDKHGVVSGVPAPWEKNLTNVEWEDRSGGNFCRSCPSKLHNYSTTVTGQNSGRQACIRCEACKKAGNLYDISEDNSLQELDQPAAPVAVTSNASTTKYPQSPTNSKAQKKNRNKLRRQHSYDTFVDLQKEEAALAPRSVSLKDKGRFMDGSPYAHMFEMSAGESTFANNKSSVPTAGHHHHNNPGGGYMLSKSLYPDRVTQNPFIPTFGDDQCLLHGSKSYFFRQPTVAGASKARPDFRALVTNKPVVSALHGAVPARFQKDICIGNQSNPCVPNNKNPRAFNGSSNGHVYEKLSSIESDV
Format: cell-based
In short: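 Calcium influx read by FLIPR after co-agonist addition (glycine 10 μM, glutamate near EC40) following 5 min compound preincubation, with signal normalized to control wells.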
Compound Cc1cncc(Cn2ncc3ncc(-c4ccc(F)c(C(C)(F)F)c4)cc32)c1 [Example 217, 6-[3-(1,1-Difluoroethyl)-4-fluoro-phenyl]-1-[(5-methyl-3-pyridyl)methyl]pyrazolo[4,3-b]pyridine] has an IC50 of 189 nM. CC(F)(F)c1cc(-c2cnc3cnn(Cc4cncc(F)c4)c3c2)ccc1F [Example 218, 6-[3-(1,1-Difluoroethyl)-4-fluoro-phenyl]-1-[(5-fluoro-3-pyridyl)methyl]pyrazolo[4,3-b]pyridine] was tested, and the IC50 was 107 nM. CC(F)(F)c1cc(-c2cnc3cnn(Cc4cncc(C#N)c4)c3c2)ccc1F [Example 219, 5-[[6-[3-(1,1-Difluoroethyl)-4-fluoro-phenyl]pyrazolo[4,3-b]pyridin-1-yl]methyl]pyridine-3-carbonitrile] showed an IC50 of 158 nM. In the case of COc1cncc(Cn2ncc3ncc(-c4ccc(F)c(C(C)(F)F)c4)cc32)c1 [Example 220, 6-[3-(1,1-Difluoroethyl)-4-fluoro-phenyl]-1-[(5-methoxy-3-pyridyl)methyl]pyrazolo[4,3-b]pyridine], the IC50 is reported as 89 nM. CC(F)(F)c1cc(-c2cnc3cnn(Cc4cncc(Cl)c4)c3c2)ccc1F [Example 221, 1-[(5-Chloro-3-pyridyl)methyl]-6-[3-(1,1-difluoroethyl)-4-fluoro-phenyl]pyrazolo[4,3-b]pyridine] gave an IC50 of 64 nM. Fc1ccc(-c2cnc3cnn(Cc4ccccn4)c3c2)cc1OC(F)F [Example 222, 6-[3-(Difluoromethoxy)-4-fluoro-phenyl]-1-(2-pyridylmethyl)pyrazolo[4,3-b]pyridine] gave an IC50 of 502 nM. For Fc1ccc(-c2cnc3cnn(Cc4cccnc4)c3c2)cc1OC(F)F [Example 223, 6-[3-(Difluoromethoxy)-4-fluoro-phenyl]-1-(3-pyridylmethyl)pyrazolo[4,3-b]pyridine], the IC50 was 38 nM. In the case of Cc1cncc(Cn2ncc3ncc(-c4ccc(F)c(OC(F)F)c4)cc32)c1 [Example 224, 6-[3-(Difluoromethoxy)-4-fluoro-phenyl]-1-[(5-methyl-3-pyridyl)methyl]pyrazolo[4,3-b]pyridine], the IC50 is reported as 56 nM. Fc1cncc(Cn2ncc3ncc(-c4ccc(F)c(OC(F)F)c4)cc32)c1 [Example 225, 6-[3-(Difluoromethoxy)-4-fluoro-phenyl]-1-[(5-fluoro-3-pyridyl)methyl]pyrazolo[4,3-b]pyridine] gave an IC50 of 39 nM. With N#Cc1cncc(Cn2ncc3ncc(-c4ccc(F)c(OC(F)F)c4)cc32)c1 [Example 226, 5-[[6-[3-(Difluoromethoxy)-4-fluoro-phenyl]pyrazolo[4,3-b]pyridin-1-yl]methyl]pyridine-3-carbonitrile] the IC50 was 68 nM. Work on COc1ccc(Cn2ncc3ncc(-c4ccc(F)c(OC(F)F)c4)cc32)cn1 [Example 227, 6-[3-(Difluoromethoxy)-4-fluoro-phenyl]-1-[(6-methoxy-3-pyridyl)methyl]pyrazolo[4,3-b]pyridine] yielded an IC50 of 1620 nM. COc1cccc(Cn2ncc3ncc(-c4ccc(F)c(OC(F)F)c4)cc32)n1 [Example 228, 6-[3-(Difluoromethoxy)-4-fluoro-phenyl]-1-[(6-methoxy-2-pyridyl)methyl]pyrazolo[4,3-b]pyridine] showed an IC50 of 383 nM. COc1ncccc1Cn1ncc2ncc(-c3ccc(F)c(OC(F)F)c3)cc21 [Example 229, 6-[3-(Difluoromethoxy)-4-fluoro-phenyl]-1-[(2-methoxy-3-pyridyl)methyl]pyrazolo[4,3-b]pyridine] was tested, and the IC50 was 716 nM. In the case of COc1cncc(Cn2ncc3ncc(-c4ccc(F)c(OC(F)F)c4)cc32)c1 [Example 230, 6-[3-(Difluoromethoxy)-4-fluoro-phenyl]-1-[(5-methoxy-3-pyridyl)methyl]pyrazolo[4,3-b]pyridine], the IC50 is reported as 48 nM. Work on Fc1ccc(-c2cnc3cnn(Cc4cncc(Cl)c4)c3c2)cc1OC(F)F [Example 231, 1-[(5-Chloro-3-pyridyl)methyl]-6-[3-(difluoromethoxy)-4-fluoro-phenyl]pyrazolo[4,3-b]pyridine] yielded an IC50 of 39 nM. Compound COc1cncc(Cn2ncc3ncc(-c4ccc(Cl)c(C(F)F)c4)cc32)c1 [Example 232, 6-[4-chloro-3-(Difluoromethyl)phenyl]-1-[(5-methoxy-3-pyridyl)methyl]pyrazolo[4,3-b]pyridine] has an IC50 of 40 nM. Compound Fc1cncc(Cn2ncc3ncc(-c4ccc(F)c(C(F)(F)F)c4)cc32)c1 [Example 233, 1-[(5-Fluoro-3-pyridyl)methyl]-6-[4-fluoro-3-(trifluoromethyl)phenyl]pyrazolo[4,3-b]pyridine] has an IC50 of 75 nM. Compound COc1cncc(Cn2ncc3ncc(-c4ccc(F)c(C(F)(F)F)c4)cc32)c1 [Example 234, 6-[4-Fluoro-3-(trifluoromethyl)phenyl]-1-[(5-methoxy-3-pyridyl)methyl]pyrazolo[4,3-b]pyridine] has an IC50 of 92 nM. Compound Fc1ccc(Cn2ncc3ncc(-c4ccc(F)c(Br)c4)cc32)cn1 [Example 235, 6-(3-Bromo-4-fluorophenyl)-1-((6-fluoropyridin-3-yl)methyl)-1H-pyrazolo[4,3-b]pyridine] has an IC50 of 253 nM. For CC(F)(F)c1cc(-c2cnc3cnn(Cc4cncc(C#N)c4)c3c2)ccc1Cl [Example 236, 5-[[6-[4-Chloro-3-(1,1-difluoroethyl)phenyl]pyrazolo[4,3-b]pyridin-1-yl]methyl]pyridine-3-carbonitrile], the IC50 was 494 nM. CC(F)(F)c1cc(-c2cnc3cnn(Cc4cncc(Cl)c4)c3c2)ccc1Cl [Example 237, 6-[4-Chloro-3-(1,1-difluoroethyl)phenyl]-1-[(5-chloro-3-pyridyl)methyl]pyrazolo[4,3-b]pyridine] showed an IC50 of 200 nM. FC(F)Oc1cc(-c2cnc3cnn(Cc4cccnc4)c3c2)ccc1Cl [Example 238, 6-[4-Chloro-3-(difluoromethoxy)phenyl]-1-(3-pyridylmethyl)pyrazolo[4,3-b]pyridine] was tested, and the IC50 was 117 nM. Compound Cc1cncc(Cn2ncc3ncc(-c4ccc(Cl)c(OC(F)F)c4)cc32)c1 [Example 239, 6-[4-Chloro-3-(difluoromethoxy)phenyl]-1-[(5-methyl-3-pyridyl)methyl]pyrazolo[4,3-b]pyridine] has an IC50 of 120 nM. With Fc1cncc(Cn2ncc3ncc(-c4ccc(Cl)c(OC(F)F)c4)cc32)c1 [Example 240, 6-[4-Chloro-3-(difluoromethoxy)phenyl]-1-[(5-fluoro-3-pyridyl)methyl]pyrazolo[4,3-b]pyridine] the IC50 was 166 nM. With N#Cc1cncc(Cn2ncc3ncc(-c4ccc(Cl)c(OC(F)F)c4)cc32)c1 [Example 241, 5-[[6-[4-Chloro-3-(difluoromethoxy)phenyl]pyrazolo[4,3-b]pyridin-1-yl]methyl]pyridine-3-carbonitrile] the IC50 was 151 nM. For COc1cncc(Cn2ncc3ncc(-c4ccc(Cl)c(OC(F)F)c4)cc32)c1 [Example 242, 6-[4-Chloro-3-(difluoromethoxy)phenyl]-1-[(5-methoxy-3-pyridyl)methyl]pyrazolo[4,3-b]pyridine], the IC50 was 500 nM. FC(F)Oc1cc(-c2cnc3cnn(Cc4cncc(Cl)c4)c3c2)ccc1Cl [Example 243, 6-[4-Chloro-3-(difluoromethoxy)phenyl]-1-[(5-chloro-3-pyridyl)methyl]pyrazolo[4,3-b]pyridine] gave an IC50 of 146 nM. In the case of Cc1c(F)ccc(-c2cnc3cnn(Cc4ccccn4)c3c2)c1F [Example 244, 6-(2,4-Difluoro-3-methyl-phenyl)-1-(2-pyridylmethyl)pyrazolo[4,3-b]pyridine], the IC50 is reported as 310 nM. Compound Cc1c(F)ccc(-c2cnc3cnn(Cc4cccnc4)c3c2)c1F [Example 245, 6-(2,4-Difluoro-3-methyl-phenyl)-1-(3-pyridylmethyl)pyrazolo[4,3-b]pyridine trifluoroacetate salt] has an IC50 of 33 nM. Compound Cc1cncc(Cn2ncc3ncc(-c4ccc(F)c(C)c4F)cc32)c1 [Example 246, 6-(2,4-Difluoro-3-methyl-phenyl)-1-[(5-methyl-3-pyridyl)methyl]pyrazolo[4,3-b]pyridine] has an IC50 of 52 nM. Work on Cc1ccncc1Cn1ncc2ncc(-c3ccc(F)c(C)c3F)cc21 [Example 247, 6-(2,4-Difluoro-3-methyl-phenyl)-1-[(4-methyl-3-pyridyl)methyl]pyrazolo[4,3-b]pyridine trifluoroacetate salt] yielded an IC50 of 128 nM. In the case of Cc1c(F)ccc(-c2cnc3cnn(Cc4ccc(F)nc4)c3c2)c1F [Example 248, 6-(2,4-Difluoro-3-methyl-phenyl)-1-[(6-fluoro-3-pyridyl)methyl]pyrazolo[4,3-b]pyridine], the IC50 is reported as 62 nM. Cc1c(F)ccc(-c2cnc3cnn(Cc4cncc(F)c4)c3c2)c1F [Example 249, 6-(2,4-Difluoro-3-methyl-phenyl)-1-[(5-fluoro-3-pyridyl)methyl]pyrazolo[4,3-b]pyridine trifluoroacetate salt] showed an IC50 of 40 nM. Fc1cc(-c2cnc3cnn(Cc4ccccn4)c3c2)cc(F)c1F [Example 250, 1-(2-Pyridylmethyl)-6-(3,4,5-trifluorophenyl)pyrazolo[4,3-b]pyridine] showed an IC50 of 2630 nM. Compound Fc1cncc(Cn2ncc3ncc(-c4cc(F)c(F)c(F)c4)cc32)c1 [Example 251, 1-[(5-Fluoro-3-pyridyl)methyl]-6-(3,4,5-trifluorophenyl)pyrazolo[4,3-b]pyridine] has an IC50 of 25 nM. COc1cncc(Cn2ncc3ncc(-c4cc(F)c(F)c(F)c4)cc32)c1 [Example 252, 1-[(5-Methoxy-3-pyridyl)methyl]-6-(3,4,5-trifluorophenyl)pyrazolo[4,3-b]pyridine] was tested, and the IC50 was 382 nM. Fc1cc(-c2cnc3cnn(Cc4cncc(OC(F)F)c4)c3c2)cc(F)c1F [Example 253, 1-[[5-(Difluoromethoxy)-3-pyridyl]methyl]-6-(3,4,5-trifluorophenyl)pyrazolo[4,3-b]pyridine] was tested, and the IC50 was 980 nM. For FC(F)(F)c1cccc(-c2cnc3cnn(Cc4ccnnc4)c3c2)c1 [Example 254, 1-(Pyridazin-4-ylmethyl)-6-[3-(trifluoromethyl)phenyl]pyrazolo[4,3-b]pyridine], the IC50 was 548 nM. In the case of Cc1cccc(-c2cnc3cnn(Cc4cccnn4)c3c2)c1 [Example 255, 6-(m-Tolyl)-1-(pyridazin-3-ylmethyl)pyrazolo[4,3-b]pyridine], the IC50 is reported as 329 nM.
